Structures are written as SMILES.

The target of the assay is T1, GABA A α5 (Homo sapiens, UniProt P18507+P31644).
T1 construct: expressed in transfected cells; host or cells: HEK293 cells, transiently transfected; membranes prepared from cell pellets
The assay is described as follows: [3H]flumazenil competition binding, human GABA A α5β3γ2 receptors in HEK293 cell membranes. The note with it: human receptor α5β3γ2 transiently transfected in HEK293; 0.5 nM [3H]flumazenil; 1 hour at 4° C.; means of two determinations; read-out: hKi GABA A α5. As to the method: The affinity of compounds at GABA A receptor subtypes was measured by competition for [3H]flumazenil (85 Ci/mmol; Roche) binding to HEK293 cells expressing rat (stably transfected) or human (transiently transfected) receptors of composition α1β3γ2, α2β3γ2, α3β3γ2 and α5β3γ2.
Cell pellets were suspended in Krebs-tris buffer (4.8 mM KCl, 1.2 mM CaCl2, 1.2 mM MgCl2, 120 mM NaCl, 15 mM Tris; pH 7.5; binding assay buffer), homogenized by polytron for ca. 20 sec on ice and centrifuged for 60 min at 4° C. (50000 g; Sorvall, rotor: SM24=20000 rpm). The cell pellets were re-suspended in Krebs-tris buffer and homogenized by polytron for ca. 15 sec on ice. Protein was measured (Bradford method, Bio-Rad) and aliquots of 1 mL were prepared and stored at −80° C.
Assays were incubated to equilibrium for 1 hour at 4° C. and harvested onto GF/C uni-filters (Packard) by filtration using a Packard harvester and washing with ice-cold wash buffer (50 mM Tris; pH 7.5). After drying, filter-retained radioactivity was detected by liquid scintillation counting. Ki values were calculated using Excel-Fit (Microsoft) and are the means of two determinations.
For the molecule `Cn1nc(OCc2c(-c3ccc(F)cc3)noc2CO)cc1C(=O)NC1(C)COC1` (racemic) [Example 98, Rac-5-[3-(4-fluoro-phenyl)-5-hydroxymethyl-isoxazol-4-ylmethoxy]-2-methyl-2H-pyrazole-3-carboxylic acid (3-methyl-oxetan-3-yl)-amide], the Ki was found to be 4.9 nM.

For the molecule `Cn1nc(OCc2c(-c3ccc(Cl)cc3)noc2CO)cc1C(=O)NC1CCOC1` (racemic) [Example 110, Rac-5-[3-(4-Chloro-phenyl)-5-hydroxymethyl-isoxazol-4-ylmethoxy]-2-methyl-2H-pyrazole-3-carboxylic acid (tetrahydro-furan-3-yl)-amide], the Ki amounted to 2.7 nM.

For the molecule `CCCCc1noc(C)c1COc1cc(C(=O)N[C@@H](C)CO)[nH]n1` (single isomer, unassigned) [Example 30], the Ki stood at 25.2 nM.

As for `Cc1onc(-c2ccc(F)cc2)c1COc1cc(C(=O)N[C@@H](C)CO)n(C)n1` (single isomer, unassigned) [Example 75, (+)-5-[3-(4-Fluoro-phenyl)-5-methyl-isoxazol-4-ylmethoxy]-2-methyl-2H-pyrazole-3-carboxylic acid ((R)-2-hydroxy-1-methyl-ethyl)-amide or 5-[3-(4-fluoro-phenyl)-5-methyl-isoxazol-4-ylmethoxy]-2-methyl-2H-pyrazole-3-carboxylic acid ((S)-2-hydroxy-1-methyl-ethyl)-amide or enantiomer], the Ki was determined as 5.7 nM.

As to `Cc1onc(-c2ccc(F)cc2)c1COc1cc(C(=O)N[C@H](C)CO)n(C)n1` (single isomer, unassigned) [Example 76, (−)-5-[3-(4-Fluoro-phenyl)-5-methyl-isoxazol-4-ylmethoxy]-2-methyl-2H-pyrazole-3-carboxylic acid ((S)-2-hydroxy-1-methyl-ethyl)-amide or 5-[3-(4-fluoro-phenyl)-5-methyl-isoxazol-4-ylmethoxy]-2-methyl-2H-pyrazole-3-carboxylic acid ((R)-2-hydroxy-1-methyl-ethyl)-amide or enantiomer], the Ki amounted to 10.8 nM.

With `CCCCc1noc(C)c1COc1cc(C(=O)NC2CCOC2)[nH]n1` (single isomer, unassigned; (+)) [Example 35, (+)-(R or S)-3-((3-Butyl-5-methylisoxazol-4-yl)methoxy)-N-(tetrahydrofuran-3-yl)-1H-pyrazole-5-carboxamide], the Ki was 6 nM.

`Cc1onc(-c2ccc(F)cc2)c1COc1cc(C(=O)NCC(O)C(F)(F)F)n(C)n1` (single isomer, unassigned; (+)) [Example 67, (+)-5-[3-(4-Fluoro-phenyl)-5-methyl-isoxazol-4-ylmethoxy]-2-methyl-2H-pyrazole-3-carboxylic acid ((S or R)-3,3,3-trifluoro-2-hydroxy-propyl)-amide or enantiomer]: the Ki was 2.4 nM.

Take `CCC(CO)NC(=O)c1cc(OCc2c(-c3ccc(F)cc3)noc2C)nn1C` (single isomer, unassigned; (+)) [Example 70, (+)-5-[3-(4-Fluoro-phenyl)-5-methyl-isoxazol-4-ylmethoxy]-2-methyl-2H-pyrazole-3-carboxylic acid ((S or R)-1-hydroxymethyl-propyl)-amide]: the Ki amounted to 16.7 nM.

Turning to `Cc1onc(-c2ccc(F)cc2)c1COc1cc(C(=O)N[C@@H]2CCCC2O)n(C)n1` (single isomer, unassigned; (+)) [Example 74], the Ki worked out at 2 nM.

In the case of `CCCCc1noc(C)c1COc1cc(C(=O)NC2CCOC2)[nH]n1` (single isomer, unassigned; (-)) [Example 34, (−)-(S or R)-3-((3-Butyl-5-methylisoxazol-4-yl)methoxy)-N-(tetrahydrofuran-3-yl)-1H-pyrazole-5-carboxamide], the Ki stood at 5.7 nM.

For the molecule `Cc1onc(-c2ccc(F)cc2)c1COc1cc(C(=O)NCC(O)C(F)(F)F)n(C)n1` (single isomer, unassigned; (-)) [Example 68, (−)-5-[3-(4-Fluoro-phenyl)-5-methyl-isoxazol-4-ylmethoxy]-2-methyl-2H-pyrazole-3-carboxylic acid ((R or S)-3,3,3-trifluoro-2-hydroxy-propyl)-amide or enantiomer], the Ki stood at 5.3 nM.

As for `CCC(CO)NC(=O)c1cc(OCc2c(-c3ccc(F)cc3)noc2C)nn1C` (single isomer, unassigned; (-)) [Example 69, (−)-5-[3-(4-Fluoro-phenyl)-5-methyl-isoxazol-4-ylmethoxy]-2-methyl-2H-pyrazole-3-carboxylic acid ((R or S)-1-hydroxymethyl-propyl)-amide], the Ki is 3.5 nM.

For the molecule `Cc1onc(-c2ccccn2)c1COc1cc(C(=O)NC(C)CO)n(C)n1` (stereo in doubt) [Example 80, 2-Methyl-5-(5-methyl-3-pyridin-2-yl-isoxazol-4-ylmethoxy)-2H-pyrazole-3-carboxylic acid ((S)-2-hydroxy-1-methyl-ethyl)-amide], the Ki turned out to be 23.5 nM.

As for `CC(NC(=O)c1cc(OCc2c(-c3ccc(Cl)cc3)noc2CO)nn1C)C(F)(F)F` (stereo in doubt) [Example 106, 5-[3-(4-Chloro-phenyl)-5-hydroxymethyl-isoxazol-4-ylmethoxy]-2-methyl-2H-pyrazole-3-carboxylic acid ((S)-2,2,2-trifluoro-1-methyl-ethyl)-amide], the Ki was found to be 8.1 nM.

In the case of `Cc1onc(-c2ccccn2)c1COc1cc(C(=O)NC(C)CO)nn1C` (stereo in doubt) [Example 114, 1-Methyl-5-(5-methyl-3-pyridin-2-yl-isoxazol-4-ylmethoxy)-1H-pyrazole-3-carboxylic acid ((S)-2-hydroxy-1-methyl-ethyl)-amide], the Ki was 16.2 nM.

Take `Cc1onc(-c2ccccc2)c1COc1cc(C(=O)N2CCOCC2)[nH]n1` [Example 1, [5-(5-Methyl-3-phenyl-isoxazol-4-ylmethoxy)-2H-pyrazol-3-yl]morpholin-4-yl-methanone]: the Ki stood at 41.3 nM.

As to `Cc1onc(-c2ccccc2)c1COc1cc(C(=O)NC(C)C)[nH]n1` [Example 2, 5-(5-Methyl-3-phenyl-isoxazol-4-ylmethoxy)-2H-pyrazole-3-carboxylic acid isopropylamide], the Ki was 32.4 nM.

For `Cc1onc(-c2ccccc2)c1COc1cc(C(=O)NC2CCOCC2)[nH]n1` [Example 3, 5-(5-Methyl-3-phenyl-isoxazol-4-ylmethoxy)-2H-pyrazole-3-carboxylic acid (tetrahydro-pyran-4-yl)-amide], the Ki amounted to 3.1 nM.

On to `Cc1onc(-c2ccccc2)c1COc1cc(C(=O)NN(C)C)[nH]n1` [Example 5, 5-(5-Methyl-3-phenyl-isoxazol-4-ylmethoxy)-2H-pyrazole-3-carboxylic acid N′,N′-dimethyl-hydrazide], for which the Ki is 14.6 nM.

Regarding `Cc1onc(-c2ccccc2)c1COc1cc(C(=O)NCCO)[nH]n1` [Example 6, 5-(5-Methyl-3-phenyl-isoxazol-4-ylmethoxy)-2H-pyrazole-3-carboxylic acid (2-hydroxy-ethyl)-amide], the Ki is 17.5 nM.

On to `Cc1onc(-c2ccccc2)c1COc1cc(C(N)=O)[nH]n1` [Example 7, 5-(5-Methyl-3-phenyl-isoxazol-4-ylmethoxy)-2H-pyrazole-3-carboxylic acid amide], for which the Ki was 36.3 nM.

Source of the values: patent publication US8163728B2, “Pyrazoles” (Hoffmann-La Roche Inc., priority 2009, dated 2012).
